Assay results taken from ChEMBL document CHEMBL5634110, “Applications of oxetanes in drug discovery and medicinal chemistry” (Eur J Med Chem, 2023).
Converted amounts (≈) assume the structure as drawn. Each block holds one compound with its values, some of them ahead of it.

Tests used:
Human orthopneumovirus = assay: Antiviral activity against RSV type B assessed as viral growth inhibition; format: functional, organism-based; conditions: human respiratory syncytial virus
[1] = Apparent permeability of compound in phosphate buffer by PAMPA assay; format: ADME
[2] = Oral bioavailability in rat at 2 mg/kg; format: ADME, organism-based; conditions: in vivo
[3] = Oral bioavailability in monkey at 5 mg/kg; format: ADME, organism-based, Macaca mulatta; conditions: rhesus monkey, in vivo
[4] = target: T1, Developmentally-regulated GTP-binding protein 1 (Homo sapiens, UniProt Q9Y295); assay: Inhibition of DRG1 (unknown origin)
T1 sequence (Q9Y295 whole entry): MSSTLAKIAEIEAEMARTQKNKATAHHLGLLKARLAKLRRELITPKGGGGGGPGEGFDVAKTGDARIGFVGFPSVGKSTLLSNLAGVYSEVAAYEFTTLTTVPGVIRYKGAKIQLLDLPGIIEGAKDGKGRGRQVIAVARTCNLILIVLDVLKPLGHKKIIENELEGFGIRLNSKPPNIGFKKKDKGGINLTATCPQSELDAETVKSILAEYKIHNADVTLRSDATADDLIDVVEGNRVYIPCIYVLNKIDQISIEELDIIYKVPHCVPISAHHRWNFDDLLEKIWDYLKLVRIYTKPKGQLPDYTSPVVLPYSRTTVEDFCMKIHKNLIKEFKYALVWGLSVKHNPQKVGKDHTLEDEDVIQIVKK

[5] = Solubility of compound in PBS at pH 7.4; format: physicochemical
[6] = Half life in iv dosed rat; format: ADME, organism-based; conditions: in vivo
[7] = AUC in iv dosed rat; format: ADME, organism-based; conditions: in vivo
[8] = Oral bioavailability in rat; format: ADME, organism-based; conditions: in vivo
[9] = Intrinsic clearance in human liver microsomes; format: ADME, Microsome; conditions: read-out: CLH
[10] = Intrinsic clearance in rat liver microsomes; format: ADME, Microsome
[11] = target: Hepatitis C virus NS5B RNA-dependent RNA polymerase (Hepatitis C virus, UniProt Q8JXU8); assay: Inhibition of Hepatitis C virus NS5B polymerase; design: species or system Hepacivirus hominis
Collagenase 3 = Collagenase 3 (Homo sapiens, UniProt P45452); assay: Binding affinity to full length human recombinant MMP-13 using Mca-PLGL-Dpa-AR-NH2 as fluorogenic peptide substrate assessed as inhibition constant
[12] = Kinetic solubility of compound in PBS buffer at 500 uM incubated for 18 hrs by HPLC analysis; format: physicochemical; conditions: read-out: Kinetic_solubility
[13] = Metabolic stability in human liver microsomes assessed as half life at 1 uM incubated for 60 mins by LC-MS/MS analysis; format: ADME, Microsome
[14] = Metabolic stability in rat liver microsomes assessed as half life at 1 uM incubated for 60 mins by LC-MS/MS analysis; format: ADME, Microsome
[15] = Metabolic stability in mouse liver microsomes assessed as half life at 1 uM incubated for 60 mins by LC-MS/MS analysis; format: ADME, Microsome
Z-138 = assay: Growth inhibition of human Z138 cells; format: functional
[16] = Inhibition of GST fused Bcl-xL (unknown origin) incubated for 5 min by TR-FRET assay; design: species or system Homo sapiens
[17] = target: Apoptosis regulator Bcl-2 (Homo sapiens, UniProt P10415); assay: Inhibition of Bcl-2 (unknown origin) by fluorescence polarization assay
[18] = AUC (0 to 24 hrs) in rat at 5 mg/kg, po; format: ADME, organism-based; conditions: in vivo
[19] = Tmax in rat at 5 mg/kg, po; format: ADME, organism-based; conditions: in vivo
[20] = Solubility of compound at pH 6.8; format: physicochemical; conditions: buffer
[21] = Intrinsic clearance in mouse liver microsomes; format: ADME, Microsome; conditions: read-out: CLH

Chain of Hepatitis C virus NS5B RNA-dependent RNA polymerase (Q8JXU8 whole entry): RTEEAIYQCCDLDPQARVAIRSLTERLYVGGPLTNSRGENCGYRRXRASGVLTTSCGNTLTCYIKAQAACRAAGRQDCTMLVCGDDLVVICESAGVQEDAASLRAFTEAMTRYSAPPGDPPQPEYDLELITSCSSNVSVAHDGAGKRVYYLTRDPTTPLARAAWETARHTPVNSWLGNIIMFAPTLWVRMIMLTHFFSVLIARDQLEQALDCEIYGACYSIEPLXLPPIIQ
Chain of Apoptosis regulator Bcl-2 (P10415 whole entry): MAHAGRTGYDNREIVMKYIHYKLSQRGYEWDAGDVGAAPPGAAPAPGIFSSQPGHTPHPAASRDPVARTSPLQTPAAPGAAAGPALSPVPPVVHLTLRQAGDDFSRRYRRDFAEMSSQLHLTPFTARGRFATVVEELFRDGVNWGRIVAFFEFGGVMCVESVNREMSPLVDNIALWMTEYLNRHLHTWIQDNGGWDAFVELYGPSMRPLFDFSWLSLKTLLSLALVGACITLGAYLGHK

Structure (SMILES): O=C(NC1CC1)c1cc2c(s1)-c1ccccc1N(C(=O)c1ccc(NC(=O)c3cccnc3N3CCC4(CC3)COC4)cc1)CC2
EC50 (Human orthopneumovirus): > 100000 nM

Structure (SMILES): COC(C)(C)C#Cc1cnc2c(c1)[C@]1(COC(N)=N1)c1cc(-c3cccnc3F)ccc1O2
Papp [1]: 12 ×10⁻⁶ cm/s

Structure (SMILES): CC(=O)N1CCC(c2cc(Nc3cc(C#N)ccn3)nc(N3CCC(F)(F)C3)c2)CC1
IC50 [4]: 180 nM

Structure (SMILES): COC(=O)Nc1nc2cc(C(=O)c3ccc(N(C)C4COC4)cc3)ccc2[nH]1
solubility [5]: 137 µg/mL (≈ 360 µM) | half-life [6]: 5.5 h | AUC [7]: 469 ng·h/mL | bioavailability [8]: 73.1%

Structure (SMILES): COc1cc(C#N)ccc1COc1cccc(N2C=NN(Cc3nc4c(F)cc(C(=O)O)cc4n3C[C@@H]3CCO3)CC2)n1
microsomal CLint [9]: 6 µL/min/mg

Structure (SMILES): Nc1nc2c(ncn2[C@@H]2O[C@H](COP(=O)(O)OP(=O)(O)OP(=O)(O)O)[C@@H](O)[C@@]23CCO3)c(=O)[nH]1
IC50 [11]: 10000 nM

Structure (SMILES): CC(C)[C@H](NC(=O)c1ccc(-c2ccc(CNc3nc4c(c(=O)[nH]3)CCC4)c(F)c2)o1)C(=O)NC1COC1
Ki (Collagenase 3): 10.3 nM | solubility kinetic at 18 h, 500 µM [12]: 32.7 µM (≈ 17.1 µg/mL) | half-life at 1 µM [13]: 1.1 h | half-life at 1 µM [14]: 1.67 h | half-life at 1 µM [15]: 1.58 h | GI50 (Z-138): 20 nM

Structure (SMILES): CC(C)[C@H](NC(=O)c1ccc(-c2ccc(CCc3nc4c(c(=O)[nH]3)CCC4)c(F)c2)o1)C(=O)NC1COC1
Ki (Collagenase 3): 12.2 nM | solubility kinetic at 18 h, 500 µM [12]: 76.4 µM (≈ 39.9 µg/mL) | half-life at 1 µM [13]: 1.02 h | half-life at 1 µM [14]: 1.03 h | half-life at 1 µM [15]: 1.73 h

Structure (SMILES): CO[C@H]1C[C@@H](C)C/C(C)=C/[C@@H](C/C=C/C2(O)COC2)C(=O)C[C@H](O)[C@@H](C)[C@@H](/C(C)=C/[C@@H]2CC[C@@H](O)[C@H](OC)C2)OC(=O)[C@@H]2CCCCN2C(=O)C(=O)[C@]2(O)O[C@H]1[C@@H](OC)C[C@H]2C
AUC(0-t) [18]: 49100 ng·h/mL | Tmax [19]: 1 h

Structure (SMILES): CC1(C)CCC(c2ccc(Cl)cc2)=C(CN2CCN(c3ccc(C(=O)NS(=O)(=O)c4ccc(N[C@H](CCN5CCOCC5)CSc5ccccc5)c(S(=O)(=O)C(F)(F)F)c4)cc3)CC2)C1 [NAVITOCLAX]
IC50 [16]: 8.2 nM

Second part, the compound after the results:

Papp [1]: 11 ×10⁻⁶ cm/s | bioavailability [2]: 70% | bioavailability [3]: 101%
Structure (SMILES): CC(C)(O)C#Cc1cnc2c(c1)[C@]1(COC(N)=N1)c1cc(-c3cccnc3F)ccc1O2

microsomal CLint [9]: 12 µL/min/mg | CLH [10]: 12 µL/min/mg
Structure (SMILES): COc1cc(C(F)(F)F)ccc1COc1cccc(N2C=NN(Cc3nc4c(F)cc(C(=O)O)cc4n3C[C@@H]3CCO3)CC2)n1

IC50 [16]: 105 nM | IC50 [17]: 17.3 nM
Structure (SMILES): CC1(C)CCC(c2ccc(Cl)cc2)=C(CN2CCN(c3ccc(C(=O)NS(=O)(=O)c4ccc(OCC5(CN6CC(F)(F)C6)COC5)c(S(=O)(=O)C(F)(F)F)c4)cc3)CC2)C1

solubility [20]: 28 µM (≈ 22.5 µg/mL) | microsomal CLint [21]: 306 µL/min/mg | AUC(0-t) [18]: 2490 ng·h/mL | Tmax [19]: 1 h
Structure (SMILES): C=CC[C@@H]1/C=C(\C)C[C@H](C)C[C@H](OC)[C@H]2O[C@@](O)(C(=O)C(=O)N3CCCC[C@H]3C(=O)O[C@H](/C(C)=C/[C@@H]3CC[C@@H](O)[C@H](OC)C3)[C@H](C)[C@@H](O)CC1=O)[C@H](C)C[C@@H]2OC [TACROLIMUS ANHYDROUS]
